Test results: US9150553B2, “Carboxamide compounds and their use as calpain inhibitors” (AbbVie Deutschland GmbH & Co. KG, priority 2007, dated 2015)

Target: T1, calpain-I isolated from human erythrocytes (Homo sapiens, UniProt P07384)
T1 construct: calpain-I—isolated from human erythrocytes; purchased Calbiochem 208713; host or cells: human erythrocytes (native tissue isolate)
T1 sequence (P07384 1-714): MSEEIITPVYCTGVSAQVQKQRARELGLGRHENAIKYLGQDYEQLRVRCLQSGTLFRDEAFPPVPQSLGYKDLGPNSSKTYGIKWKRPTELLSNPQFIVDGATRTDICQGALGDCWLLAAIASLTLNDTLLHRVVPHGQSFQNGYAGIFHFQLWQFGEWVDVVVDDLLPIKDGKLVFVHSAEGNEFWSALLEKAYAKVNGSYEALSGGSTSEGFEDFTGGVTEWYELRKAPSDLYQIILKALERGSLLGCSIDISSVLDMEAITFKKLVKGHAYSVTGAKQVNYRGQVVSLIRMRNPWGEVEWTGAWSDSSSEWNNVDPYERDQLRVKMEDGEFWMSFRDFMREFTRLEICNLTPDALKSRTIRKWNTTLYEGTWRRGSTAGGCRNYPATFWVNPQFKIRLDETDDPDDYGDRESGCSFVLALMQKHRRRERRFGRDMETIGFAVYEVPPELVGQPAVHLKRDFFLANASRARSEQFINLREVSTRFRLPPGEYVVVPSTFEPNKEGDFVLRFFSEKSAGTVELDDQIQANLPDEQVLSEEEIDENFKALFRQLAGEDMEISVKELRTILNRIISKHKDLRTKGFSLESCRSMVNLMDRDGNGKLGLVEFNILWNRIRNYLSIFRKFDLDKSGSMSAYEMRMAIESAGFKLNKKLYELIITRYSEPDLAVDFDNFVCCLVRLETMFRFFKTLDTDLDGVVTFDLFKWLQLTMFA
T1 sequence (P04632 1-268 partner): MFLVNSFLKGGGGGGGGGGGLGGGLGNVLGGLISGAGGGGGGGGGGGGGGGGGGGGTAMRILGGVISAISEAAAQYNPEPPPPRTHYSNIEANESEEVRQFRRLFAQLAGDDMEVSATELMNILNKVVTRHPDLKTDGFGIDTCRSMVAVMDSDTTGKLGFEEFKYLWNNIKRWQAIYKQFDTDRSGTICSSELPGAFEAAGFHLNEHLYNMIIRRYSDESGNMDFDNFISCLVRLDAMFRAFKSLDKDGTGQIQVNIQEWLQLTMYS
Test: Calpain I enzyme inhibition, kinetic fluorescence assay
Format: biochemical
Details: apparent Ki from IC50 by Cheng-Prussoff; pH 7.3, room temperature
Description: The following solutions and buffers were employed: • HBS (for 40 ml): 800 μl 1M HEPES; 2.16 ml 100 mM KCl; 4.8 ml 1M NaCl; 3.59 ml 5% glucose; 60 μl 1M MgSO4; 400 μl 100 mM Na pyruvate, 28.19 ml water; pH 7.2-7.5. • lysis buffer (for 20 ml): 400 μl 1M Tris pH 8.2; 2.74 ml 1M NaCl; 520 μl 0.5M EDTA; 2 ml 10% triton X-100; 0.8 ml (=1:25) CompletePlus (1 tablet/2 ml H2O); 200 μl 100 mM Pefabloc; 13.34 ml water, pH 8.2. • TBST (10×) (for 1I): 100 mM Tris (12.1 g); 1.5M NaCl (87 g); 1% Tween 20 (10 g), adjusted to pH 8. I. Enzyme Inhibition In Vitro: • Testing for blockade of the corresponding enzymic activities was carried out by means of kinetic fluorescence assays (excitation 390 nm, emission 460 nm). • Apparent Ki values were calculated from the experimentally determined IC50 values by the Cheng-Prussoff relation assuming a reversible competitive enzyme inhibition. The Km values of the substrates used under the assay conditions indicated above were: 90 μM (Z-Phe-Arg-AMC, cathepsin B), 10 μM (Z-Gly-Pro-Arg-AMC, cathepsin K), 2 μM (Z-Phe-Arg-AMC, cathepsin L), and 30 μM (Z-Val-Val-Arg-AMC, cathepsin S). • The indicated Ki values are averages of the inhibition constants calculated on the basis of 2 to 4 independent dose-effect plots. • The following assays were used: • 1. Calpain I: • 20 nM calpain-I—isolated from human erythrocytes (Calbiochem #208713), 100 μM Suc-Leu-Tyr-AMC (Bachem #I-1355) as substrate in buffer with 62 mM imidazole, 0.3 mM CaCl2, 0.10% CHAPS, 0.05% BSA, 1 mM DTT at pH 7.3 and room temperature. • 2. Cathepsin B: • 0.25 nM cathepsin B—isolated from human liver (Calbiochem #219362), 100 μM Z-Phe-Arg-AMC (Bachem #I-1160) as substrate 50 mM MES, 2 mM EDTA, 0.05% Brij 35, 2.5 mM L-cysteine, pH 6.0, room temperature. • 3. Cathepsin K: • 3 nM cathepsin K—activated from recombinant human procathepsin K from E. coli (Calbiochem #342001), 10 μM Z-Gly-Pro-Arg-AMC (Biomol #P-142) as substrate in 50 mM MES, 2 mM EDTA, 0.05% Brij 35, 2.5 mM L-cysteine, pH 6.0, room temperature. • 4. Cathepsin L: • 1 nM cathepsin L—isolated from human liver (Calbiochem #219402), 2 μM Z-Phe-Arg-AMC (Bachem #I-1160) as substrate in 50 mM MES, 2 mM EDTA, 0.05% Brij 35, 2.5 mM L-cysteine, pH 6.0, room temperature. • 5. Cathepsin S: • 0.5 nM recombinant human cathepsin S from E. coli (Calbiochem #219343), 20 μM Z-Val-Val-Arg-AMC (Bachem #I-1540) as substrate in 50 mM MES, 2 mM EDTA, 0.05% Brij 35, 2.5 mM L-cysteine, pH 6.0, room temperature. • The results of the in vitro determination are indicated in Table 2. The following abbreviations are used in Table 2: • The “Calpain activity” column, ++ stands for a calpain Ki (Ki(calpain)) of ≦40 nM, + means: 40 nM<Ki(Calpain)≦100 nM, 0 means 100 nM<Ki(Calpain)≦1 μM, − means 1 μM<Ki(Calpain)≦10 μM, −− means Ki(Calpain)>10 μM. • The “Sel. cat. B” column indicates the Ki(cathepsin B)/Ki(calpain) ratio. In this connection, ++ means a Ki(cathepsin B)/Ki(calpain) ratio of ≧30 and + means≦10≦Ki(cathepsin B)/Ki(calpain)<30. • The “Sel. cat. K” column indicates the Ki(cathepsin K)/Ki(calpain) ratio. In this connection, ++ means a Ki(cathepsin K)/Ki(calpain) ratio of ≧30 and + means 10≦Ki(cathepsin K)/Ki(calpain)<30. • The “Sel. cat. L” column indicates the Ki(cathepsin L)/Ki(calpain) ratio. In this connection, ++ means a Ki(cathepsin L)/Ki(calpain) ratio of ≧50 and + means 30≦Ki(cathepsin L)/Ki(calpain)<50. • The “Sel. cat. S” column indicates the Ki(cathepsin S)/Ki(calpain) ratio. […]

## NC(=O)C1(C(Cc2ccccc2)NC(=O)c2cccnc2-n2ccc(-c3cccc(C(F)(F)F)c3)n2)OCCO1 (stereo not shown) [Compound I-2, N-{1-[2-(Aminocarbonyl)-1,3-dioxolan-2-yl]-2-phenylethyl}-2-{3-[3-(trifluoromethyl)phenyl]-1H-pyrazol-1-yl}nicotinamide]
  Ki: > 10 µM
